Laboratory results reported in US8815800B2, “Moisturizing composition comprising an aminopeptide mixture” (Conopco, Inc., priority 2011, dated 2014).

How the values were obtained:
stratum corneum = assay: Hydration of stratum corneum: water uptake in sorption-desorption cycle (Dynamic Water Sorption Analyzer); conditions: 0.12 mL applied
Protocol: The hydration of the stratum corneum was estimated from hysteresis observed during the sorption-desorption cycle. Disks of stratum corneum (6 mm in diameter) were treated with 0.06 mL aminopeptide mixture, glycerol or water at both sides and dried. The samples were then placed in a Dynamic Water Sorption Analyzer and with controlled humidity. When the humidity was increased in small steps (Delta RH=10%) water uptake was measured after 3 hours equilibration for each step. Water uptake is defined as a mass of water per the dry mass of stratum corneum. Table 3 depicts the values of water uptake for sorption and desorption for stratum corneum treated with aminopeptide mixture consistent with this invention (Sample 3), glycerol and stratum corneum treated with deionized water.

[1] = Glass transition temperature by differential scanning calorimetry; assay type: physicochemical
Protocol: Glass transition temperatures were measured using differential scanning calorimetry (DSC Q1000, TA Instruments) at a heating rate of 10 K/min from −80 to +40° C. Glass transition temperatures were determined using TA instrument software (TA Advantage) from the middle of the heat capacity curve. The compositions comprising aminopeptide mixtures consistent with this invention were assessed against glycerol and other compositions with amino acids. Water concentration means the water concentration of the composition at the time the glass transition temperature was obtained. Water was evaporated from contained compositions by storing the same at room temperature at a relative humidity of about 33%.

Ex-vivo porcine skin = assay: Skin moisturization: Corneometer hydration of treated ex-vivo porcine skin
Protocol: Skin moisturization was assessed in terms of hydration, measured using a Corneometer (Courage+Khazaka, Germany, model CM 825, consistent with the Sorption Desorption Test described in Bioengineering of the Skin:Water and the Stratum Corneum, by G. Borroni et al., Ed by P. Elsner et al., CBC Press, Chapter 18, 1995). Instrument readings typically vary from 5 to 120 units, with small numbers (˜6) typical for nails, higher numbers typical for dry skin (˜10-20), medium numbers typical for hydrated skin (˜40) and large numbers typical for skin immediately after application of water-based humectants (above 100).
Ex-vivo porcine skin (area 1.5 cm×1.5 cm) was treated with 0.1 ml of the compositions identified in Table 1 as well as a 10% glycerol solution and deionized water as the control. Readings were taken before treatments as a baseline and at least 5 measurements were made at the same position at the time intervals shown in the table.
The relative hydration numbers were calculated as 100%*(Ct-C0)/C0, where C0 is the reading before the treatment, and Ct is the reading taken at the time t after treatment.

## OCC(O)CO [Glycerol (10%), glycerol]
Stratum corneum; relative humidity 20.8 %
  Water uptake, desorption: 87.3 mg/g
  Water uptake, sorption: 122.22 mg/g
  water uptake difference (desorption-sorption): 34.92 mg/g
Stratum corneum; relative humidity 31 %
  Water uptake, desorption: 135.34 mg/g
  Water uptake, sorption: 161.38 mg/g
  water uptake difference (desorption-sorption): -26.04 mg/g
Stratum corneum; relative humidity 41 %
  Water uptake, desorption: 192.06 mg/g
  Water uptake, sorption: 209.84 mg/g
  water uptake difference (desorption-sorption): -17.78 mg/g
Stratum corneum; relative humidity 51 %
  Water uptake, desorption: 261.90 mg/g
  Water uptake, sorption: 275.13 mg/g
  water uptake difference (desorption-sorption): -13.23 mg/g
Stratum corneum; relative humidity 60.2 %
  Water uptake, desorption: 366.67 mg/g
  Water uptake, sorption: 366.67 mg/g
  water uptake difference (desorption-sorption): 0 mg/g
Stratum corneum; relative humidity 70.35 %
  Water uptake, desorption: 524.34 mg/g
  Water uptake, sorption: 524.34 mg/g
  water uptake difference (desorption-sorption): 0 mg/g
[1]; water concentration 0 % in composition at reading
  Glass transition temperature: −83 °C
[1]; water concentration 40 % in composition at reading
  Glass transition temperature: −108 °C
Ex-vivo porcine skin; 10 minutes after treatment with 0.1 ml
  Relative Hydration: 23%
Ex-vivo porcine skin; 30 minutes after treatment with 0.1 ml
  Relative Hydration: 11%
Ex-vivo porcine skin; 60 minutes after treatment with 0.1 ml
  Relative Hydration: 10%
Ex-vivo porcine skin; after 10, 30, and 60 minutes of application to model skin, in words
  change in hydration with respect to the initial hydration number: lower
